Measured values from article PMC10860144, “Exploring the Dispersion and Electrostatic Components in Arene–Arene Interactions between Ligands and G4 DNA to Develop G4-Ligands” (Journal of Medicinal Chemistry, 2024).

Test system: template not forming a G4 structure (PEPu24T mut)
Assay: Taq polymerase stop (primer extension) assay, non-G4 template
Assay type: biochemical
From the text: To challenge all the synthesized compounds (2–11 and 25–29) in a more intricate context, we conducted a Taq polymerase stop assay to evaluate their capacity to impede DNA synthesis through G4 stabilization. In this assay, we compared the progress of the Taq DNA polymerase along two distinct DNA templates: one with a G4 structure (Figure 5) and another serving as a non-G4 control (Figure S21). If an external species (e.g., G4 ligand) binds and stabilizes the G4 structure, the polymerase will be partially halted. The extent of this DNA polymerase stalling is dependent on the ability of the compound to stabilize the G4 on the DNA template. The increased G4 stabilization can be detected as a reduction in the amount of newly synthesized DNA that has reached the end of the DNA template (full-length/end-product). Analysis of these shorter terminated DNA products will give information about the precise location of the DNA polymerase stalling with a single nucleotide resolution. If the ligand imposes little to no stabilization or binding, the G4 is readily resolved by the DNA polymerase, and no difference in the amount of DNA end-product can therefore be expected upon the addition of the compound. […]
The images were quantified using ImageJ 1.53e software and the percentage of full-length product compared to a sample without compound was calculated. […]

Cc1cc(C)c2nc(Nc3nc(C)cc(NCCCN(C)C)n3)nc(C)c2c1 [Compound 5, N4-(3-(Dimethylamino)propyl)-6-methyl-N2-(4,6,8-trimethylquinazolin-2-yl)pyrimidine-2,4-diamine]
concentration at which an effect on the Taq polymerase was observed in the absence of a G4 structure: > 4 µM
